Assay results as given in patent US20060134017A1, “Oral treatment compositions containing an anti-adhesion agent, antibacterial agent and incompatible compound” (Colgate-Palmolive Company, priority 2004, published 2006).

What was measured:
[1] = generic protease activity assay (Panvera); type: biochemical; details: neat powder, 40° C., neutral pH; +/-3
Protocol: The activity of proteases was evaluated using generic protease assay from Panvera at 40° C. and neutral pH. The activity was assessed relative to papain on an equal weight basis of neat powder samples. Krillase protease enzymes are a mixture of eight different proteases; thus, the activity of any one of the eight was not discernable by the present assay. The assay aided in determining dose for the dose response studies. In clinical formulations, enzymes were dosed based on an equal weight basis. Table 2 gives the relative activity of neat enzymes.

[2] = tested on: oral bacteria culture on saliva-coated hydropxyapatite (SHAP) disks; assay: Artificial Mouth anti-attachment efficacy model (chemostat flow cell, SHAP disks); type: cell-based; details: for anti-adhesion efficacy, ranking of in vitro results: toothpaste formulas; for anti-adhesion efficacy relative to matching negative control paste (statistical analysis): toothpaste with 0.226 weight percent protease, ABS610 after 24 hours
Excerpt: To test the efficacy of the actives in toothpaste formulas, the Artificial Mouth model was utilized. This is generally described in Herles, S., S. Olsen, et al. (1994). “Chemostat flow cell system: an in vitro model for the evaluation of antiplaque agents.” J Dent Res 73(11): 1748-55. The Artificial Mouth model is a flow system that simulates the human mouth. Saliva-coated hydropxyapatite (SHAP) disks served as the artificial teeth, and a bacteria culture consisting of the main oral bacteria in humans flowed through the system at a speed consistent with the in vivo human saliva. Eight disks for each treatment were then placed in the chemostat flow cell and oral bacteria culture was allowed to flow through the disks overnight (20-24 hours) to see if actives coated on the disk surfaces would prevent bio-film formation. After 24 hours the SHAP disks were removed and amount of bacteria quantified. The ABS610 of the solutions were then measured and analyzed. […] From this value, the percentage anti-adhesion effectiveness of the pastes is evaluated relative to a matching negative control. Two concentrations of protease were tested for each of the three protease; namely. 0.226 weight percent and 0.065 weight percent.

## Ficin
[1]
  Activity by protease assay: 23 CPU/g
[2]
  anti-adhesion efficacy, ranking of in vitro results: better then the papain
  anti-adhesion efficacy relative to matching negative control paste (statistical analysis): showed efficacy

B1: Papain: cysteine protease enzyme obtained from the fruit and leaves of Carica papaya (EDC papain) (protein, UniProt P00784 134-345, looked up)
Papain: IPEYVDWRQKGAVTPVKNQGSCGSCWAFSAVVTIEGIIKIRTGNLNEYSEQELLDCDRRSYGCNGGYPWSALQLVAQYGIHYRNTYPYEGVQRYCRSREKGPYAAKTDGVRQVQPYNEGALLYSIANQPVSVVLEAAGKDFQLYRGGIFVGPCGNKVDHAVAAVGYGPNYILIKNSWGTGWGENGYIRIKRGTGNSYGVCGLYTSSFYPVKN
[1]
  Activity by protease assay: 25 CPU/g
[2]
  anti-adhesion efficacy, ranking of in vitro results: better then the matching placebo paste
  anti-adhesion efficacy relative to matching negative control paste (statistical analysis): showed efficacy
